A short description of data set [1]: Single-dose pharmacokinetic profile. The format is in vivo, mice. The conditions noted are these: male, mouse, plasma; for Cmax / half-life: 10 mg/kg. How it is done:
The male mice were received with a small molecule N106 at 10 mg kg^−1 intravenously and 10 mg kg^−1 orally (PO). The bloods were corrected at 30 min, 1, 2 and 4 h after administration intravenously and at 30 min, 1, 2 and 4 h after treatment for oral administration studies. Plasma samples from these studies were extracted by plasma separator tube containing lithium heparin (BD Microcontainer, NJ, USA). Plasma concentrations of N106 were determined by HPLC analysis and pharmacokinetic parameters. Three mice for each time point were used.
Supplementary Figure 13. Pharmacokinetic profile of N106 following administration to mice. The murine PK profile of single dose of N106 (10 mg.kg-1) was determined following intravenously (IV) and oral (PO) administration and analysis of plasma samples was performed by high performance liquid chromatography. Data represents mean value of N106 plasma concentrations in mice. n = 3 mice per each time point. Cmax, maximum concentration; T ½, half time; Tmax, time to peak concentration.

Data set [2] has as its system pressure overload-induced mouse model of HF (TAC). Briefly: Invasive P–V loop haemodynamics in TAC heart failure mice. It counts as in vivo. How it is done: B6C3F1 mice were acquired from Jackson Laboratories. Mice underwent TAC using a supraclavicular construction model as described. TAC or sham surgery was performed in 8∼10-week-old male mice (25∼30 g). Mice were anaesthetized with intraperitoneal ketamine (95 mg kg^−1) and xylaxine (5 mg kg^−1), and ventilated with a tidal volume of 0.1 ml and a respiratory rate of 110 breaths per minute (Harvard Apparatus, MA, USA). A 2- to 3-mm longitudinal cut was made in the proximal portion of the sternum, allowing visualization of the aortic arch. The transverse aortic arch was ligated between the innominate and left common carotid arteries with an overlaying 27-gauge needle. The needle was immediately removed, leaving a discrete region of constriction. Animal sham group underwent a similar procedure without ligation. Only animals with fractional shortening < 50% were determined as being in HF and suitable for further study.
One day after echocardiography, we performed in-vivo haemodynamics. The mice were anaesthetized with an intraperitoneal injection mixture of urethane (1 mg g^−1), etomidate (10 μg g^−1) and morphine (1 μg g^−1), and were then intubated via a tracheotomy and mechanically ventilated at 7 μl g^−1 tidal volume and 120 respirations per minute. A small incision was made in the apex and a French Millar cathether connected a high-fidelity pressure transducer (Scisense, London, ON, Canada) inserted into the LV. Haemodynamic recordings were performed after 5∼10 min of stable HR. The rate of pressure rise (+dP/dt) and maximal pressure, the time constant of isovolumic relaxation and HR were recorded and analysed. To determine the relative effects of the admittance and conductance techniques to contractility change induced by N106 compound infusion, whole haemodynamic function was recorded at both baseline and after administration of N106 compound through the external jugular vein. N106 compound was solubilized in 10% DMSO (Sigma-Aldrich), 10% Tween-80 (Sigma-Aldrich) and saline for in-vivo experiments. N106 or vehicle solutions were continuously infused through the external jugular vein at a rate of 50 μl min^−1 for 2 min in each dose. Whole haemodynamic functions of increasing dose of N106 of each mouse were recorded for ∼4 h. Each dose of N106 solution was infused after back to baseline of heart function.

Read-outs that look alike come from different tables or passages of the source.

For orientation: Cmax means the maximum level reached in the sampled fluid or tissue. One may read the bioavailability as the share of a dose that reaches the circulation, judged against a reference dose that is usually intravenous. The term Tmax denotes the time from dosing to the highest level.

Take `COc1ccc(-c2nnc(Nc3nc4c(OC)cccc4s3)o2)cc1` [Compound N106, N-(4-methoxybenzo[d]thiazol-2-yl)-5-(4-methoxyphenyl)-1,3,4-oxadiazol-2-amine]: the Cmax turned out to be 2240 nM in data set [1] (iv, mice, 10 mg kg^−1 intravenous) and 457 nM in data set [1] (po, mice, 10 mg kg^−1 oral). For the same molecule, the half-life in data set [1] (iv, mice, 10 mg kg^−1 intravenous, read-out: half-life) came to 65.4 min; in data set [1] (po, mice, 10 mg kg^−1 oral, read-out: terminal elimination half-life (t1/2)) it was 19 min. Further, in data set [1] (oral, 10 mg kg^−1, mice, 10 mg kg^−1 PO vs IV, read-out: oral bioavailability (F%)), the bioavailability came out at 56%. Also, in data set [1] (mice, 10 mg kg^−1 oral), the Tmax was 30 min. Besides, the “+dP/dtmax” value in data set [2] (0.1 mg kg^−1 infusion) came to 4803.33±91.78 mm Hg s^−1; in data set [2] (1 mg kg^−1 infusion), 5448.83±147.09 mm Hg s^−1; in data set [2] (10 mg kg^−1 infusion) it was 6229.41±103.23 mm Hg s^−1. Also, the HR in data set [2] (0.1 mg kg^−1 infusion) was 417.11±4.54 bpm; in data set [2] (1 mg kg^−1 infusion), 422.33±3.79 bpm; in data set [2] (10 mg kg^−1 infusion) it was 455.08±5.62 bpm. Also, the results for the Pmax in data set [2] (0.1 mg kg^−1 infusion), in data set [2] (1 mg kg^−1 infusion) and in data set [2] (10 mg kg^−1 infusion) were 115.11±1.27 mm Hg, 123.66±5.28 mm Hg and 124.50±4.26 mm Hg, respectively. Besides, the “τ, time constant of isovolumetric relaxation” value in data set [2] (0.1 mg kg^−1 infusion) was determined as 7.50 ± 0.15 ms; in data set [2] (1 mg kg^−1 infusion), 6.40 ± 0.15 ms; in data set [2] (10 mg kg^−1 infusion), 6.27 ± 0.13 ms. The values for the ESPVR slope in data set [2] (0.1 mg kg^−1 infusion via jugular vein), in data set [2] (1 mg kg^−1 infusion) and in data set [2] (10 mg kg^−1 infusion) were 9.04±1.20 mm Hg μl^−1, 11.26±1.00 mm Hg μl^−1 and 20.3±0.41 mm Hg μl^−1, respectively.

The values are drawn from paper PMC4467461, “Small-molecule activation of SERCA2a SUMOylation for the treatment of heart failure” (Nature Communications, 2015).
